Values quoted from earlier work in patent publication US20240197726A1, “NOVEL TETRAHYDROISOQUINOLINE ALKALOID COMPOUND CONTAINING MACROCYCLE” (THE UNIVERSITY OF TOKYO, priority 2021, published 2024).
Like-named read-outs stand apart in the source and are kept apart here.

What was measured:
Conditions in all cases: cited from earlier work
[1] = system: NCI-H23 lung cancer cells
[2] = system: HT-29 colorectal cancer cells
[3] = system: MCF-7 breast cancer cells
[4] = system: A549 lung cancer cells
[5] = system: NCI-H460 lung cancer cells
[6] = system: MDA-MB-231 breast cancer cells
[7] = system: HCT-116 colorectal cancer cells
[8] = NCI-H23, reference values from literature (Leal et al. Br. J Pharmacol, 2010), read-out: GI50 value: 50% growth inhibitory concentration
[9] = HT-29, reference values from literature (Leal et al. Br. J Pharmacol, 2010), read-out: GI50 value: 50% growth inhibitory concentration
[10] = A549, reference values from literature (Leal et al. Br. J Pharmacol, 2010), read-out: GI50 value: 50% growth inhibitory concentration
[11] = NCI-H460, reference values from literature (Leal et al. Br. J Pharmacol, 2010), read-out: GI50 value: 50% growth inhibitory concentration
[12] = MDA-MB-231, reference values from literature (Leal et al. Br. J Pharmacol, 2010), read-out: GI50 value: 50% growth inhibitory concentration
[13] = HCT-116, reference values from literature (Leal et al. Br. J Pharmacol, 2010), read-out: GI50 value: 50% growth inhibitory concentration

Structure (SMILES) | GI50 ([1]; NCl-H23 lung cancer cells, comparative value based on the literature, read-out: antitumor activity GI50 value: 50% growth inhibitory concentration) | GI50 ([2]; HT-29 colorectal cancer cells, comparative value based on the literature, read-out: antitumor activity GI50 value: 50% growth inhibitory concentration) | GI50 ([3]; MCF-7 breast cancer cells, comparative value based on the literature, read-out: antitumor activity GI50 value: 50% growth inhibitory concentration) | GI50 ([4]; A549 lung cancer cells, comparative value based on the literature, read-out: antitumor activity GI50 value: 50% growth inhibitory concentration) | GI50 ([5]; NCl--H460 lung cancer cells, comparative value based on the literature, read-out: antitumor activity GI50 value: 50% growth inhibitory concentration) | GI50 ([6]; MDA-MB-231 breast cancer cells, comparative value based on the literature, read-out: antitumor activity GI50 value: 50% growth inhibitory concentration) | GI50 ([7]; HCT-116 colorectal cancer cells, comparative value based on the literature, read-out: antitumor activity GI50 value: 50% growth inhibitory concentration) | GI50 [1, 8] | GI50 [2, 9] | GI50 ([3]; MCF-7, reference values from literature (Leal et al. Br. J Pharmacol, 2010), listed as drawing 118, read-out: GI50 value: 50% growth inhibitory concentration) | GI50 ([3]; MCF-7, reference values from literature (Leal et al. Br. J Pharmacol, 2010), listed as drawing 142, read-out: GI50 value: 50% growth inhibitory concentration) | GI50 [4, 10] | GI50 [5, 11] | GI50 [6, 12] | GI50 [7, 13] | GI50 ([3]; MCF-7, reference values from literature (Leal et al. Br. J Pharmacol, 2010), read-out: GI50 value: 50% growth inhibitory concentration)
COc1c(C)cc2c(c1C)[C@H]1N(C)[C@@](C)(C2)C(O)N2C1(C)[C@@H]1CCC3(NCCc4cc(C)c(C)cc43)C(=O)OC[C@@]2(C)c2c3c(c(C)c(C)c21)OCO3 (stereo partly shown) | 2.1 nM | 9.8 nM | 2.6 nM | 10.4 nM | 1.8 nM | 3.9 nM | 4.9 nM | – | – | – | – | – | – | – | – | –
COc1cc2c(cc1O)CCNC21CS[C@@H]2c3c(OC(C)=O)c(C)c4c(c3C(COC1=O)N1[C@@H]2[C@H]2c3c(cc(C)c(OC)c3O)C[C@@H]([C@@H]1O)N2C)OCO4 (stereo partly shown) [Ecteinascidin 743, reference compound] | – | – | – | – | – | – | – | 2.1 nM | 9.8 nM | 2.6 nM | 2.8 nM | 10.4 nM | 1.8 nM | 3.9 nM | 4.9 nM | –
COc1cc2c(cc1O)CCN[C@]21CS[C@@H]2c3c(OC(C)=O)c(C)c4c(c3[C@H](COC1=O)N1[C@@H]2[C@H]2c3c(cc(C)c(OC)c3O)C[C@@H]([C@@H]1O)N2C)OCO4 [Ecteinascidin 743, reference compound] | – | – | – | – | – | – | – | 2.1 nM | 9.8 nM | – | – | 10.4 nM | 1.8 nM | 3.9 nM | 4.9 nM | 2.6 nM
